Patent US8680159B2, “Bradykinin 1 receptor modulating compounds” (Gruenenthal GmbH, priority 2010, dated 2014)
Read-outs that look alike come from different tables or passages of the source.

How the values were obtained:
[1] = target: T1, human B1R receptor (CHO K1 cells stably transfected with the human B1R gene) (Homo sapiens, UniProt P46663); assay: Functional study on the bradykinin receptor 1 (B1R), Ca2+ fluorescence (Fluo-4) FLIPR/Novostar assay, hB1R cells; assay type: cell-based
T1 construct: expressed in transfected cells; host or cells: CHO K1 cells (Chinese hamster ovary), stably transfected
T1 sequence (P46663 1-353): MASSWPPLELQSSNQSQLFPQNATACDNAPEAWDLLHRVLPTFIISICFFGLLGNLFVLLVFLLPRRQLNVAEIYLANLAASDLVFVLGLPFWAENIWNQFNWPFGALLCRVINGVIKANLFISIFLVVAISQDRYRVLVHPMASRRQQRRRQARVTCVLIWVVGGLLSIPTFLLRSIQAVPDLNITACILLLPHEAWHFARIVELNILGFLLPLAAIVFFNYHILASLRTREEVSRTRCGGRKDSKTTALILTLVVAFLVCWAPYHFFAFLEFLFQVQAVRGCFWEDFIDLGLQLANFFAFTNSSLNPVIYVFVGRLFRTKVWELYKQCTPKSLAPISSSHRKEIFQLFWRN
Outline: (§1)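 Stably transfected CHO K1 cells carrying human or rat B1R were Fluo-4 loaded and Ca2+ fluorescence read by FLIPR or Novostar. Compounds were added first at 10 μM for % activation, then the EC80 agonist was applied after 6-20 min (human: Lys-Des-Arg9-bradykinin; rat: Des-Arg9-bradykinin). % inhibition is relative to maximum achievable inhibition, and IC50 comes from concentration series.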

[2] = target: T2, B1R receptor of the rat (CHO K1 cells stably transfected with the B1R gene of the rat) (Rattus norvegicus, UniProt P97583); assay: Functional study on the bradykinin receptor 1 (B1R), Ca2+ fluorescence (Fluo-4) FLIPR/Novostar assay, rB1R cells; assay type: cell-based; details: for inhibition at 10 µM: CHO-K1, 10 μM
T2 construct: expressed in transfected cells; host or cells: CHO K1 cells (Chinese hamster ovary), stably transfected
T2 sequence (P97583 1-337): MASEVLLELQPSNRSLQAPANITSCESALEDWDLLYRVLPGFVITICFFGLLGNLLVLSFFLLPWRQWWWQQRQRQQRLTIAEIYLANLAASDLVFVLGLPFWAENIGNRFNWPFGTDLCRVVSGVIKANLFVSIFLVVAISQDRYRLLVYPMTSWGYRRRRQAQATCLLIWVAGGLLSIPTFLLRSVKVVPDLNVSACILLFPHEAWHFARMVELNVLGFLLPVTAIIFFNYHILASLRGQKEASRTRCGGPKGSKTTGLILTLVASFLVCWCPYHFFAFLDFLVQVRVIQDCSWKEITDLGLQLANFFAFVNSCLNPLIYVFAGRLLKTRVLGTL
Outline: as §1

[3] = CHO-K1, read-out: % Inhibition (h-B1R) at 10 μM
[4] = read-out: % Inhibition (r-B1R) at 10 μM
[5] = CHO-K1, read-out: % inhibition (human B1R) at 10 μM
[6] = read-out: % inhibition (rat B1R) at 10 μM

| inhibition at 10 µM [1, 5] [%] | inhibition at 10 µM [2, 6] [%] | SMILES | also measured |
| --- | --- | --- | --- |
| – | – | CN(C(=O)c1ccc2c(c1)CCC2NC(=O)c1cccc(Cl)c1Cl)C1CCN(c2ccncc2)CC1 (stereo not shown) [CC_H-67, 1-[(2,3-Dichloro-benzoyl)amino]-N-methyl-N-(1-pyridin-4-yl-piperidin-4-yl)-2,3-dihydro-1H-indene-5-carboxylic acid amide] | inhibition at 10 µM [1, 3]: 100%; inhibition at 10 µM [2, 4]: 98% |
| – | – | CN(C(=O)c1ccc2c(c1)CCC2NC(=O)c1ccccc1Cl)C1CCN(c2ccncc2)CC1 (stereo not shown) [CC_H-68, 1-[(2-Chloro-benzoyl)amino]-N-methyl-N-(1-pyridin-4-yl-piperidin-4-yl)-2,3-dihydro-1H-indene-5-carboxylic acid amide] | inhibition at 10 µM [1, 3]: 96%; inhibition at 10 µM [2, 4]: 87% |
| – | – | CN(C(=O)c1ccc2c(c1)C(N(C)C(=O)C1CCCCC1)CC2)C1CCN(c2ccncc2)CC1 (stereo not shown) [CC_H-69, 3-(Cyclohexanecarbonyl-methyl-amino)-N-methyl-N-(1-pyridin-4-yl-piperidin-4-yl)-2,3-dihydro-1H-indene-5-carboxylic acid amide] | inhibition at 10 µM [1, 3]: 99%; % Inhibition (r-B1R) at 10 μM ([2]; 10 μM): 104% |
| – | – | CN(C(=O)c1ccc2c(c1)C(N(C)C(=O)CCC1CCCC1)CC2)C1CCN(c2ccncc2)CC1 (stereo not shown) [CC_H-70, 3-(3-Cyclopentyl-propanoyl-methyl-amino)-N-methyl-N-(1-pyridin-4-yl-piperidin-4-yl)-2,3-dihydro-1H-indene-5-carboxylic acid amide] | inhibition at 10 µM [1, 3]: 100%; inhibition at 10 µM [2, 4]: 103% |
| 100 | 102 | O=C(NCCC1CCN(c2ccncc2)CC1)c1ccc2c(c1)C(NC(=O)c1ccccc1Cl)CC2 (stereo not shown) [Example H-01, 3-[(2-Chloro-benzoyl)amino]-N-[2-(1-pyridin-4-yl-piperidin-4-yl)-ethyl]-2,3-dihydro-1H-indene-5-carboxylic acid amide] | – |
| 15 | 108 | O=C(NCC1CCN(c2ccncc2)CC1)c1ccc2c(c1)[C@H](NC(=O)c1ccccc1Cl)CC2 [Example H-03, (3R)-3-[(2-Chloro-benzoyl)amino]-N-[(1-pyridin-4-yl-piperidin-4-yl)-methyl]-2,3-dihydro-1H-indene-5-carboxylic acid amide] | – |
| 21 | 47 | O=C(NC1CCN(c2ccc(C(F)(F)F)cn2)C1)c1ccc2c(c1)[C@H](NC(=O)c1ccccc1Cl)CC2 (stereo partly drawn) [Example H-04, (3R)-3-[(2-Chloro-benzoyl)amino]-N-[1-[5-(trifluoromethyl)-pyridin-2-yl]-pyrrolidin-3-yl]-2,3-dihydro-1H-indene-5-carboxylic acid amide] | – |
| 100 | 102 | CN(C(=O)c1ccc2c(c1)[C@H](NC(=O)c1ccccc1Cl)CC2)C1CCN(c2ccncc2)CC1 [Example H-06, (3R)-3-[(2-Chloro-benzoyl)amino]-N-methyl-N-(1-pyridin-4-yl-piperidin-4-yl)-2,3-dihydro-1H-indene-5-carboxylic acid amide] | – |
| 43 | 96 | O=C(NC1CCN(c2ccncc2)CC1)c1ccc2c(c1)[C@H](NC(=O)c1ccccc1Cl)CC2 [Example H-07, (3R)-3-[(2-Chloro-benzoyl)amino]-N-(1-pyridin-4-yl-piperidin-4-yl)-2,3-dihydro-1H-indene-5-carboxylic acid amide] | – |
| 38 | 83 | O=C(N[C@H]1CCN(C2CCN(C3CC3)CC2)C1)c1ccc2c(c1)[C@H](NC(=O)c1ccccc1Cl)CC2 [Example H-09, (3R)-3-[(2-Chloro-benzoyl)amino]-N-[(3S)-1-(1-cyclopropyl-piperidin-4-yl)-pyrrolidin-3-yl]-2,3-dihydro-1H-indene-5-carboxylic acid amide] | – |
| 18 | 97 | O=C(NCC1CCCN(c2ccncc2)C1)c1ccc2c(c1)[C@H](NC(=O)c1ccccc1Cl)CC2 (stereo partly drawn) [Example H-10, (3R)-3-[(2-Chloro-benzoyl)amino]-N-[(1-pyridin-4-yl-piperidin-3-yl)-methyl]-2,3-dihydro-1H-indene-5-carboxylic acid amide] | – |
| 99 | 49 | CN(C(=O)c1ccc2c(c1)CC[C@H]2N1Cc2cccc(Cl)c2C1=O)C1CCN(c2ccncc2)CC1 [Example H-11, (1R)-1-(4-Chloro-3-oxo-1,2-dihydro-isoindol-2-yl)-N-methyl-N-(1-pyridin-4-yl-piperidin-4-yl)-2,3-dihydro-1H-indene-5-carboxylic acid amide] | – |
| 100 | 100 | CN(C(=O)c1ccc2c(c1)[C@H](N1Cc3cccc(Cl)c3C1=O)CC2)C1CCN(c2ccncc2)CC1 [Example H-12, (3R)-3-(4-Chloro-3-oxo-1,2-dihydro-isoindol-2-yl)-N-methyl-N-(1-pyridin-4-yl-piperidin-4-yl)-2,3-dihydro-1H-indene-5-carboxylic acid amide] | – |
| – | – | CN1CCN(C2CCC(NC(=O)c3ccc4c(c3)[C@H](NC(=O)c3ccccc3Cl)CC4)C(C)(C)C2)CC1 (stereo partly drawn) [Example H-14, (3R)-3-[(2-Chloro-benzoyl)amino]-N-[2,2-dimethyl-4-(4-methyl-piperazin-l-yl)-cyclohexyl]-2,3-dihydro-1H-indene-5-carboxylic acid amide] | % inhibition (human B1R) at 10 μM [1]: 64%; % inhibition (rat B1R) at 10 μM ([2]; 10 μM): 76% |
| 100 | 99 | O=C(NCCC1CCN(c2ccncc2)CC1)c1ccc2c(c1)[C@H](NC(=O)c1ccccc1Cl)CC2 [Example H-15, (3R)-3-[(2-Chloro-benzoyl)amino]-N-[2-(1-pyridin-4-yl-piperidin-4-yl)-ethyl]-2,3-dihydro-1H-indene-5-carboxylic acid amide] | – |
| 100 | 92 | CN(C(=O)c1ccc2c(c1)CC[C@H]2NS(=O)(=O)c1ccccc1Cl)C1CCN(c2ccncc2)CC1 [Example H-16, (1R)-1-[[(2-Chlorophenyl)sulfonyl]amino]-N-methyl-N-(1-pyridin-4-yl-piperidin-4-yl)-2,3-dihydro-1H-indene-5-carboxylic acid amide] | – |
| 100 | 77 | CN(C(=O)c1ccc2c(c1)CC[C@H]2NC(=O)c1ccccc1Cl)C1CCN(c2ccncc2)CC1 [Example H-17, (1R)-1-[(2-Chloro-benzoyl)amino]-N-methyl-N-(1-pyridin-4-yl-piperidin-4-yl)-2,3-dihydro-1H-indene-5-carboxylic acid amide] | – |
| 100 | 102 | CN(C(=O)c1ccc2c(c1)[C@H](NC(=O)C1CCC1)CC2)C1CCN(c2ccncc2)CC1 [Example H-18, (3R)-3-(Cyclobutanecarbonylamino)-N-methyl-N-(1-pyridin-4-yl-piperidin-4-yl)-2,3-dihydro-1H-indene-5-carboxylic acid amide] | – |
| 98 | 103 | CN(C(=O)c1ccc2c(c1)[C@H](NC(=O)C(C)(C)C)CC2)C1CCN(c2ccncc2)CC1 [Example H-19, (3R)-3-(2,2-Dimethyl-propanoylamino)-N-methyl-N-(1-pyridin-4-yl-piperidin-4-yl)-2,3-dihydro-1H-indene-5-carboxylic acid amide] | – |
| 100 | 103 | CN(C(=O)c1ccc2c(c1)[C@H](NC(=O)c1ccccc1Cl)CCO2)C1CCN(c2ccncc2)CC1 [Example H-20, (4R)-4-[(2-Chloro-benzoyl)amino]-N-methyl-N-(1-pyridin-4-yl-piperidin-4-yl)-3,4-dihydro-2H-chromene-6-carboxylic acid amide] | – |
| 99 | 105 | CN(C(=O)c1ccc2c(c1)[C@@H](NC(=O)c1ccccc1Cl)CC2)C1CCN(c2ccncc2)CC1 [Example H-21, (3S)-3-[(2-Chloro-benzoyl)amino]-N-methyl-N-(1-pyridin-4-yl-piperidin-4-yl)-2,3-dihydro-1H-indene-5-carboxylic acid amide] | – |
| 100 | 87 | CN(C(=O)c1ccc2c(c1)[C@H](NC(=O)c1cnn3cccnc13)CC2)C1CCN(c2ccncc2)CC1 [Example H-22, N-[(1R)-6-[Methyl-(1-pyridin-4-yl-piperidin-4-yl)-carbamoyl]-2,3-dihydro-1H-indene-1-yl]-pyrazolo[1,5-a]pyrimidine-3-carboxylic acid amide] | – |
| 97 | 93 | CN(C(=O)c1ccc2c(c1)[C@H](NC(=O)c1ccccc1Cl)CC2)C1CCN(c2ccccn2)CC1 [Example H-23, (3R)-3-[(2-Chloro-benzoyl)amino]-N-methyl-N-(1-pyridin-2-yl-piperidin-4-yl)-2,3-dihydro-1H-indene-5-carboxylic acid amide] | – |
